Results reported in patent US10851069B2, “Compositions of crystallized hydrophobic compounds and methods of making and using same” (Massachusetts Institute of Technology, priority 2016, dated 2020).

Columns and labels:
[1] = In vitro drug release from alginate capsules loaded with crystalline or amorphous formulations; assay type: physicochemical; conditions: accelerated release conditions (+ SDS)
Description: Release study was carried out in 3 different media, a normal saline-Isopropyl alcohol (10%) mixture, a phosphate buffer (pH 7.4), or for accelerated condition with phosphate buffered saline (pH 7.4) either with 0.1% w/v or 03% w/v SDS. Release study at NS+10% IPA was carried out in 2 ml medium at 37° C. Sampling was carried out by replacement of 1.5 ml of release medium by total replacement of release medium with fresh medium. […] For release in accelerated condition (PBS+SDS), the same time points were followed while 20 μl of drug loaded capsules were incubated in 2 ml release medium to achieve sink conditions. Drug concentration in samples was measured by reverse phase HPLC on C-18 column with a mobile phase or using UV calibrated system. An isocratic mode was set at a flow rate of 0.5-2 ml/min and a different wave-length of nm and 20-50 μl of samples was injected into an HPLC system (Waters, LC-Module-I) or UV analyzed. Calibration curves were prepared in concentration range of 0.05-10 μg/ml. Using prepared calibration curves, drugs concentration in different release samples were calculated.

[2] = system: non-human primates (cynomolgus macaques); test: Crystalline GW2580 alginate capsules (0.5 and 1.5 mm) implanted IP and SC in non-human primates, foreign body response; assay type: in vivo; conditions: for macrophage responses on retrieved capsules (FACS): all cases of remaining drug
Description: Lead candidates identified in these studies, like GW2580, were subsequently tested in a non-human primate (NHP) model in which capsules (0.5 and 1.5 mm) were implanted in both the intraperitoneal (IP) and subcutaneous (SC) spaces (FIGS. 12 and 13C). […] IP space (lavage) drug concentrations were traced by LCMS fort each capsule type following retrieval time points, and found to drop from only 2-3 ng/ml at 4 weeks post-implantation to below detectable limit (0.5 ng/ml) beyond. […] And while 0.5 mm drug-loaded capsules became clumped at 3 months, they were not extensively embedded into surrounding omental tissue until 6 months (FIGS. 12, 23B and 23C).
For non-human primate (NHP) procedures, buprenorphine (0.01-0.03 mg/kg) was administered as a pre-operative analgesic. NHPs were then sedated using an intramuscular (IM) injection of ketamine (10 mg/kg) with an addition of midazolam as dictated by DCM vet staff if needed for additional sedation. Animals were maintained on a circulating warm water blanket and covered with a towel during the procedure to maintain body temperature. Either 0.5 or 1.5 mm diameter (drug-loaded) SLG20 spheres were implanted by minimally invasive laparoscopic surgery, and injected into the dorsal (back) regions of 4 non-human primates (cynomolgus macaques) using 18 and 12 gauge custom-manufactured (Harvard Apparatus) sterile stainless steel needles, with slip tip syringes in order to prevent shearing of our biomaterial upon injection. Needles were inserted tangentially to the backs of the NHPs, and were slid (tunneled) approximately 1-2 cm away from the initial injection point, in order to try to separate the injection from that of the site of eventual material response. Spheres (0.5 and 1.5 mm diameter) were injected into 4 total spots on the flank of 4 of our non-human primates: two spots on the left flank and two on the right, for 0.5 mm and 1.5 mm diameter sphere implants, respectively.
For non-human primate intraperitoneal and subcutaneous retrievals, similar to when material was implanted, NHPs were once again given buprenorphine (0.01-0.03 mg/kg) as a pre-operative analgesic, and sedated using an IM injection of ketamine (10 mg/kg), with midazolam as dictated by DCM vet staff if needed for additional sedation. Animals were once again maintained on a circulating warm water blanket and covered with a towel during the procedure to maintain body temperature. 8 mm diameter biopsy punches were then used to sample the entire skin and subcutaneous space at 2 and later at 4 weeks post-implantation. Following biopsy punches, the retrieval site was closed with 3-0 nylon in a simple-interrupted pattern and VetBond (tissue glue). For IP retrievals, minimally invasive laparoscopic surgery was also used (similar to implant procedures). […]

For COc1ccc(COc2ccc(Cc3cnc(N)nc3N)cc2OC)cc1 [GW2580, 5-[[3-Methoxy-4-[(4-methoxyphenyl)methoxy]phenyl]methyl]-2,4-pyrimidinediamine], which drug release profile ([1]; amorphous form in 2000 μm alginate capsules) is on record?
The drug release profile was “Higher drug release”.

What about the drug release profile ([1]; pure crystalline formulations in 2000 μm alginate capsules) of the same molecule?
The drug release profile was “released the drug more slowly initially, but continued releasing drugs for a much longer period of time”.

What about the “sphere embedding and collagen deposition (H&E and Masson's Trichrome)” value ([2]; 0.5 and 1.5 mm drug-loaded capsules, excised implant-site tissue) of the same molecule?
Its value is “lack of sphere embedding and collagen deposition”.

What about the “fibrosis development (phase contrast)” value ([2]; crystalline, 0.5 and 1.5 mm capsules, 2 and 4 weeks, IP and SC) of the same molecule?
The value was “prevented fibrosis development”.

What about the “macrophage responses on retrieved capsules (FACS)” value ([2]; crystalline, 0.5 and 1.5 mm capsules) of the same molecule?
Its value is “significant inhibition of macrophage responses”.

What about the “macrophage responses on retrieved capsules (FACS)” value ([2]; crystalline, 0.5 and 1.5 mm capsules, listed as GW) of the same molecule?
Its value is “reduced multiple orders of magnitude”.
